For 64 compounds, EC50 results are on record in patent US12583858B2 (Genentech, Inc., priority 2015, dated 2026).

SMILES strings stand for the structures.

The target in this assay is T1, TDO2 (Homo sapiens, UniProt P48775).
T1 construct: decreased levels of NFK in SW48 cells (high TDO expressing cells)
T1 sequence (P48775 whole entry): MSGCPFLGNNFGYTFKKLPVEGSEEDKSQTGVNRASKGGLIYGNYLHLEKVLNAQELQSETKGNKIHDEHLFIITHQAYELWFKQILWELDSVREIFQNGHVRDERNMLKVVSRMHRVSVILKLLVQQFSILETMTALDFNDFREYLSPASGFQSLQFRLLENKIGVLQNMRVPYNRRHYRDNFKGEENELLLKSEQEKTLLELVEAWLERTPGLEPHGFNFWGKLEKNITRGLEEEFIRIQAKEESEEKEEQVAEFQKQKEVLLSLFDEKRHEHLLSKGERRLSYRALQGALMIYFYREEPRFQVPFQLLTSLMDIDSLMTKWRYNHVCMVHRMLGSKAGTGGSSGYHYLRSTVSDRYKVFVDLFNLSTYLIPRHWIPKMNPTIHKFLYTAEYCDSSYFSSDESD
Put plainly: TDO2 cell assay (NFK GreenScreen, SW48 cells). It is filed as cell-based. Particulars: SW48 cells (high TDO expressing), 200 uM tryptophan, 24 hours; Table 3; read-out: TDO2 Cell Fluor EC50.
Broadly, the EC50 is the midpoint of the concentration-response curve. With `OC1CCOCC1C1c2c(F)cccc2-c2cncn21` (single isomer, unassigned) [Example 73a], the EC50 stood at 6.4 µM.
On to `OC1CCOCC1C1c2c(F)cccc2-c2cncn21` (single isomer, unassigned) [Example 73b], for which the EC50 stood at 2.2 µM.
Under `OC1CCOCC1C1c2c(F)cccc2-c2cncn21` (single isomer, unassigned) [Example 73c] stands 0.34 µM; under `OC1CCOCC1C1c2c(F)cccc2-c2cncn21` (single isomer, unassigned) [Example 73d], more than 25 µM; under `OC1COCCC1C1c2cc(F)ccc2-c2cncn21` (single isomer, unassigned) [Example 75-1a], 5.7 µM.
The result for `OC1COCCC1C1c2cc(F)ccc2-c2cncn21` (single isomer, unassigned) [Example 75-1b] reads more than 25 µM; that for `OC1COCCC1C1c2cc(F)ccc2-c2cncn21` (single isomer, unassigned) [Example 75-1c], 0.11 µM; that for `OC1COCCC1C1c2cc(F)ccc2-c2cncn21` (single isomer, unassigned) [Example 75-1d], more than 25 µM.
The result for `OC1CCOCC1C1c2cc(F)ccc2-c2cncn21` (single isomer, unassigned) [Example 75a] reads more than 25 µM; that for `OC1CCOCC1C1c2cc(F)ccc2-c2cncn21` (single isomer, unassigned) [Example 75b], 1.2 µM.
As to `OC1CCOCC1C1c2cc(F)ccc2-c2cncn21` (single isomer, unassigned) [Example 75c], the half-maximal effective concentration (EC50) was determined as 19 µM.
The result for `OC1CCOCC1C1c2cc(F)ccc2-c2cncn21` (single isomer, unassigned) [Example 75d] reads 0.52 µM.
On to `CCS(=O)(=O)N1CCC2(CCC(C3c4ccccc4-c4cncn43)C2O)CC1` (single isomer, unassigned) [Example 76a], for which the 50% effective concentration (EC50) was 9.5 µM.
The result for `CCS(=O)(=O)N1CCC2(CCC(C3c4ccccc4-c4cncn43)C2O)CC1` (single isomer, unassigned) [Example 76b] reads 15 µM; that for `CCS(=O)(=O)N1CCC2(CCC(C3c4ccccc4-c4cncn43)C2O)CC1` (single isomer, unassigned) [Example 76c], 0.071 µM; that for `CCS(=O)(=O)N1CCC2(CCC(C3c4ccccc4-c4cncn43)C2O)CC1` (single isomer, unassigned) [Example 76d], 15 µM.
As for `CCS(=O)(=O)N1CCC2(CCC(C3c4ccccc4-c4cncn43)C2O)CC1` (single isomer, unassigned) [Example 76e], the EC50 worked out at 0.25 µM.
The result for `O=S(=O)(C1CC1)N1CC[C@@H]([C@H]2c3ccccc3-c3cncn32)[C@H](O)C1` (single isomer, unassigned) [Example 77a] reads more than 25 µM; that for `CS(=O)(=O)N1CCC(C2c3ccccc3-c3cncn32)C(O)C1` (single isomer, unassigned) [Example 79a], 8.1 µM.
Under `CS(=O)(=O)N1CCC(C2c3ccccc3-c3cncn32)C(O)C1` (single isomer, unassigned) [Example 79b] stands 5.2 µM; under `CC(C)S(=O)(=O)N1CC[C@@H]([C@H]2c3ccccc3-c3cncn32)[C@H](O)C1` (single isomer, unassigned) [Example 80a], more than 25 µM; under `CC(C)S(=O)(=O)N1CC[C@@H]([C@H]2c3ccccc3-c3cncn32)[C@H](O)C1` (single isomer, unassigned) [Example 80b], 0.14 µM.
Under `O=S(=O)(C1CC1)N1CC[C@@H]([C@@H]2c3ccccc3-c3cncn32)[C@H](O)C1` (single isomer, unassigned) [Example 81a] stands 5.3 µM; under `O=S(=O)(C1CC1)N1CC[C@@H]([C@@H]2c3ccccc3-c3cncn32)[C@H](O)C1` (single isomer, unassigned) [Example 81b], more than 25 µM; under `CC1(C)OC(C)(C)C(C2c3ccccc3-c3cncn32)C1O` (single isomer, unassigned) [Example 84a], 14 µM.
On to `CC1(C)OC(C)(C)C(C2c3ccccc3-c3cncn32)C1O` (single isomer, unassigned) [Example 84b], for which the EC50 was found to be 0.067 µM.
Under `CC1(C)OC(C)(C)C(C2c3ccccc3-c3cncn32)C1O` (single isomer, unassigned) [Example 84c] stands 13 µM; under `CC1(C)OC(C)(C)C(C2c3ccccc3-c3cncn32)C1O` (single isomer, unassigned) [Example 84d], 3.6 µM.
`CC1(C)OC(C)(C)C(C2c3ccccc3-c3cncn32)C1O` (single isomer, unassigned) [Example 84e]: the EC50 was more than 25 µM.
On to `CC1(C)OC(C)(C)C(C2c3ccccc3-c3cncn32)C1O` (single isomer, unassigned) [Example 84f], for which the concentration for a half-maximal effect (EC50) is more than 25 µM.
Under `CC1(C)OCC(C2c3ccccc3-c3cncn32)C1O` (single isomer, unassigned) [Example 85a] stands 24 µM.
Take `CC1(C)OCC(C2c3ccccc3-c3cncn32)C1O` (single isomer, unassigned) [Example 85b]: the EC50 came to 0.13 µM.
Under `CC1(C)OCC(C2c3ccccc3-c3cncn32)C1O` (single isomer, unassigned) [Example 85c] stands 11 µM.
The result for `CC1(C)OCC(C2c3ccccc3-c3cncn32)C1O` (single isomer, unassigned) [Example 85d] reads 0.66 µM.
As to `CC1(C)OCC(C2c3ccccc3-c3cncn32)C1O` (single isomer, unassigned) [Example 85e], the EC50 was more than 25 µM.
With `CC1(C)OCC(C2c3ccccc3-c3cncn32)C1O` (single isomer, unassigned) [Example 85f], the EC50 is more than 25 µM.
`CC1(C)OCC(C2c3ccccc3-c3cncn32)C1O` (single isomer, unassigned) [Example 85g]: the concentration for a half-maximal effect (EC50) was 0.14 µM.
Consider `CC1(C)OCC(C2c3ccccc3-c3cncn32)C1O` (single isomer, unassigned) [Example 85h], for which the concentration giving a half-maximal response (EC50) was determined as 0.66 µM.
Regarding `OC1CCCOCC1C1c2ccccc2-c2cncn21` (single isomer, unassigned) [Example 86a], the EC50 turned out to be 14 µM.
In the case of `OC1CCCOCC1C1c2ccccc2-c2cncn21` (single isomer, unassigned) [Example 86b], the EC50 came out at 0.52 µM.
For the compound `OC1CCCOCC1C1c2ccccc2-c2cncn21` (single isomer, unassigned) [Example 86c], the EC50 is more than 25 µM.
Under `OC1CCCOCC1C1c2ccccc2-c2cncn21` (single isomer, unassigned) [Example 86d] stands 0.14 µM; under `OC1CCCOCC1C1c2ccccc2-c2cncn21` (single isomer, unassigned) [Example 86e], more than 25 µM.
For the compound `OC1CCCOCC1C1c2ccccc2-c2cncn21` (single isomer, unassigned) [Example 86f], the EC50 is 0.15 µM.
The result for `OC1CCCOCC1C1c2ccccc2-c2cncn21` (single isomer, unassigned) [Example 86g] reads 0.84 µM.
As for `OC1CC2(COC2)C1C1c2ccccc2-c2cncn21` (single isomer, unassigned) [Example 87a], the EC50 was 18 µM.
Under `OC1CC2(COC2)C1C1c2ccccc2-c2cncn21` (single isomer, unassigned) [Example 87c] stands 6 µM; under `OC1CC2(COC2)C1C1c2ccccc2-c2cncn21` (single isomer, unassigned) [Example 87d], more than 25 µM.
`OC1CC2(COC2)C1C1c2ccccc2-c2cncn21` (single isomer, unassigned) [Example 87e]: the concentration giving a half-maximal response (EC50) turned out to be 14 µM.
The result for `OC1CC2(COC2)C1C1c2ccccc2-c2cncn21` (single isomer, unassigned) [Example 87f] reads 17 µM; that for `OC1CC2(COC2)C1C1c2ccccc2-c2cncn21` (single isomer, unassigned) [Example 87g], 0.24 µM.
On to `OC1CC2(COC2)C1C1c2ccccc2-c2cncn21` (single isomer, unassigned) [Example 87h], for which the EC50 was 11 µM.
Under `OC1c2nccn2CCC1C1c2ccccc2-c2cncn21` (single isomer, unassigned) [Example 88a] stands more than 25 µM; under `OC1c2nccn2CCC1C1c2ccccc2-c2cncn21` (single isomer, unassigned) [Example 88b], more than 25 µM; under `OC1c2nccn2CCC1C1c2ccccc2-c2cncn21` (single isomer, unassigned) [Example 88c], more than 25 µM.
The result for `OC1c2nccn2CCC1C1c2ccccc2-c2cncn21` (single isomer, unassigned) [Example 88d] reads 21 µM; that for `OC1c2nccn2CCC1C1c2ccccc2-c2cncn21` (single isomer, unassigned) [Example 88e], more than 25 µM; that for `OC1c2nccn2CCC1C1c2ccccc2-c2cncn21` (single isomer, unassigned) [Example 88f], 5.8 µM.
With `OC1c2nccn2CCC1C1c2ccccc2-c2cncn21` (single isomer, unassigned) [Example 88g], the half-maximal effective concentration (EC50) was found to be 0.73 µM.
The result for `OC1c2nccn2CCC1C1c2ccccc2-c2cncn21` (single isomer, unassigned) [Example 88h] reads more than 25 µM.
Under `CC(C)S(=O)(=O)N1CCC(C2c3ccccc3-c3cncn32)C(O)C1` (single isomer, unassigned) [Example 89a] stands 14 µM; under `CC(C)S(=O)(=O)N1CCC(C2c3ccccc3-c3cncn32)C(O)C1` (single isomer, unassigned) [Example 89b], more than 25 µM; under `CC1(C)CCCC(C)(C2c3ccccc3-c3cncn32)C1O` (single isomer, unassigned) [Example 90a], more than 25 µM.
Take `CC1(C)CCCC(C)(C2c3ccccc3-c3cncn32)C1O` (single isomer, unassigned) [Example 90b]: the EC50 was more than 25 µM.
